Patent US20240197650A1, “Combination of Cinnamaldheyde and Eugenol with Antimycotic Activity” (priority 2021, published 2024)

Assays:
C. glabrata = assay: Disk diffusion method, C. glabrata strains; type: cell-based
Protocol: (§1) A total of eighteen strains belonging to Candida spp. (15 C. albicans, 2 C. glabrata and 1 C. lusitaniae) derived from a collection of vaginal strains isolated in CHROMAgar Candida (BD Italia SpA, Milan, Italy) were grown on Potato Dextrose Agar (Oxoid Thermofisher SpA, Milan, Italy) at 35° C. for 24 hours.
Colonies were re-suspended in sterile saline at a density corresponding to #0.5 McFarland (opacity standard). #0.5 McF correspond to 1.4×10^6 colony forming units (CFU)/ml for C. albicans, 4.3×10^6 CFU/ml for C. glabrata and 3×10^6 CFU/ml for C. lusitaniae [Guinea J. et al., Rapid antifungal susceptibility determination for yeast isolates by use of Etest performed directly on blood samples from patients with fungemia, J Clin Microbiol. 2010 June, 48(6): 2205-12]. Then, the sensitivity test vs the two oils has been performed. The disk diffusion method was carried out as follows: for each tested strain, 4 plates of Potato Dextrose Agar (PDA) were seeded in 3 directions to produce a confluent growth, by sterile swab soaked in the cell suspension. Sorbent paper disks (Oxoid Thermofisher SpA, Milan, Italy) 6.0 mm diameter were placed on the agar surface and added with 10 μl of each essential oil. Disks soaked with 10 μg amphotericin B were used as positive control. Also disks of chlortrimazole (from 10 μg to 40 μg) were used, but the inhibition rings could not be clearly read due to the formation of a re-growth ring. Disks soaked with 10 μl pure dimethylsulphoxide (DMSO, Sigma-Aldrich, St. Louis, MO, USA) were used as negative control. The plates were incubated at 35° C. for 24 hours. All the experiments were carried out in duplicate. The inhibiting effect of the oils were considered to be effective when the inhibition ring was equal or greater than that caused by amphotericin B. For amphotericin B, an inhibition zone (IZ)≥15 mm was considered as “sensitivity”, from 10 to 14 mm as “intermediate sensitivity” and <10 mm as “resistance” [Kauser et al., Agreement of Direct Antifungal Susceptibility Testing from Positive Blood Culture Bottles with Conventional Method for Candida Species, J Clin Microbiol. 2016 February, 54(2):343-34].

Candida spp. = assay: Microdilution method MIC/MFC, 18 Candida spp. strains (distribution); type: cell-based; details: 18 strains
Protocol: as §1
(§2) The antifungal activity of amphotericin B and of cinnamaldheyde and eugenol were tested with the microdilution method as reported by Bona et al. [Bona et al., Sensitivity of Candida albicans to essential oils: are they an alternative to antifungal agents? J Appl Microbiol. 2016 December, 121(6): 1530-1545] with small changes. All the 18 Candida spp strains were tested. For each isolated, the colonies deriving from cultures (24 hours) in PDA were diluted in saline up to a concentration of 2×10^3 CFU/ml (so obtaining a final concentration of 10 3CGU/ml). Cinnamaldehyde and eugenol were dissolved in DMSO (80% oil, 20% DMSO), then diluted in Sabouraud broth up to a concentration of 8% v/v (so obtaining a final concentration of 4% v/v). Then, in a 96-well microtiter plate ½ serial dilution of amphotericin B (range 32-0.032 μg/ml, for a final range of 16-0.016 μg/ml) and of the essential oils (range 8-0.004% v/v, for a final range of 4-0.002% v/v) were carried out. Each well was then injected with 100 μl of cell suspension. The negative control contained DMSO diluted in Sabouraud broth (at 2% v/v, for a final concentration of 1% v/v). […] Each experiment was carried out in duplicate. The Minimum Inhibitory Concentration (MIC) was determined as the concentration of the oils in the first well which is not cloudy. The Minimum Fungicidal Concentration (MFC) was determined as the lowest concentration of the oils, with the agar culture showing the complete absence of fungal growth. The determination of the amphotericin B MIC was carried out also according to the EUCAST guidelines (cutoff 1 μg/ml) [https://eucast.org/astoffungi/clinicalbreakpointsforantifungals], all the results being consistent.

[1] = test system: L. acidophilus strain La-14; assay: Microdilution vs L. acidophilus; type: cell-based, Lactobacillus acidophilus; details: for MIC vs L. acidophilus: MRS broth, 37° C. 48 hours, anaerobiosis; for MIC vs L. acidophilus relative to the observed maximum MIC vs Candida spp: maximum MIC in 2 strains out of 18 only
Protocol: The antibacterial activity of […] eugenol vs L. acidophilus was studied by using the disk diffusion method (reading scheme as reported in FIG. 1) and the microdilution method (reading scheme as reported in FIG. 2). A L. acidophilus strain named La-14 (Danisco SpA, Milan, Italy) was tested. The essential oils (80% oil, 20% DMSO) were dissolved in MRS broth up to a concentration of 8% v/v (so obtaining a final concentration of 4% v/v). In a 96-well microtiter plate, 1⁄2 serial dilutions of the oils were carried out (volume: 100 μl. […] Each well was then injected with 100 μl of the cell suspension. The microtiter plates were incubated at 37° C. for 48 hours in anaerobiosis. MIC was determined as the concentration of the oils in the first well which is not cloudy. The experiment was carried out in duplicate.

C. lusitaniae = assay: Disk diffusion method, C. lusitaniae strain; type: cell-based; details: C. lusitaniae 1
Protocol: as §1
Colonies were re-suspended in sterile saline at a density corresponding to #0.5 McFarland (opacity standard). #0.5 McF correspond to 1.4×10^6 colony forming units (CFU)/ml for C. albicans, 4.3×10^6 CFU/ml for C. glabrata and 3×10^6 CFU/ml for C. lusitaniae [Guinea J. et al., Rapid antifungal susceptibility determination for yeast isolates by use of Etest performed directly on blood samples from patients with fungemia, J Clin Microbiol. 2010 June, 48(6): 2205-12]. Then, the sensitivity test vs the two oils has been performed. The disk diffusion method was carried out as follows: for each tested strain, 4 plates of Potato Dextrose Agar (PDA) were seeded in 3 directions to produce a confluent growth, by sterile swab soaked in the cell suspension. Sorbent paper disks (Oxoid Thermofisher SpA, Milan, Italy) 6.0 mm diameter were placed on the agar surface and added with 10 μl of each essential oil. Disks soaked with 10 μg amphotericin B were used as positive control. Also disks of chlortrimazole (from 10 μg to 40 μg) were used, but the inhibition rings could not be clearly read due to the formation of a re-growth ring. Disks soaked with 10 μl pure dimethylsulphoxide (DMSO, Sigma-Aldrich, St. Louis, MO, USA) were used as negative control. The plates were incubated at 35° C. for 24 hours. All the experiments were carried out in duplicate. […]

C. albicans = assay: Microdilution method MIC/MFC, C. albicans strains; type: cell-based
Protocol: as §1, §2

O=CC=Cc1ccccc1 [Cinnamaldheyde, cinnamaldehyde]
Diameters of the inhibition rings (including 6.0 mm of the disk) (C. glabrata; C. glabrata 1): 55.0 mm
Diameters of the inhibition rings (including 6.0 mm of the disk) (C. glabrata; C. glabrata 2): 55.0 mm
MFC average (Candida spp.): 0.01 % v/v
MIC average (Candida spp.): 0.0048 % v/v
MIC vs L. acidophilus relative to the average MIC vs Candida spp [1]: about 6.7 fold
MIC vs L. acidophilus [1]: 0.032 % v/v
MIC vs L. acidophilus relative to the observed maximum MIC vs Candida spp [1]: double
Diameters of the inhibition rings (including 6.0 mm of the disk) (C. lusitaniae): 75.0 mm
MFC (C. albicans; C. albicans 1): 0.008 % v/v
MIC (C. albicans; C. albicans 1): 0.004 % v/v
MFC (C. albicans; C. albicans 2): 0.008 % v/v
MIC (C. albicans; C. albicans 2): 0.004 % v/v
MFC (C. albicans; C. albicans 3): 0.004 % v/v
MIC (C. albicans; C. albicans 3): 0.004 % v/v
MFC (C. albicans; C. albicans 4): 0.008 % v/v
MIC (C. albicans; C. albicans 4): ≤0.002 % v/v
MFC (C. albicans; C. albicans 5): 0.004 % v/v
MIC (C. albicans; C. albicans 5): 0.004 % v/v
MFC (C. albicans; C. albicans 6): 0.008 % v/v
MIC (C. albicans; C. albicans 6): 0.004 % v/v
MFC (C. albicans; C. albicans 7): 0.008 % v/v
MIC (C. albicans; C. albicans 7): ≤0.002 % v/v
MFC (C. albicans; C. albicans 8): 0.008 % v/v
MIC (C. albicans; C. albicans 8): 0.004 % v/v
MFC (C. albicans; C. albicans 9): 0.064 % v/v
MIC (C. albicans; C. albicans 9): 0.016 % v/v
MFC (C. albicans; C. albicans 10): ≤0.002 % v/v
MIC (C. albicans; C. albicans 10): ≤0.002 % v/v
MFC (C. albicans; C. albicans 11): ≤0.002 % v/v
MIC (C. albicans; C. albicans 11): ≤0.002 % v/v
MFC (C. albicans; C. albicans 12): ≤0.002 % v/v
MIC (C. albicans; C. albicans 12): ≤0.002 % v/v
MFC (C. albicans; C. albicans 13): 0.016 % v/v
MIC (C. albicans; C. albicans 13): 0.008 % v/v
MFC (C. albicans; C. albicans 14): 0.016 % v/v
MIC (C. albicans; C. albicans 14): 0.004 % v/v
MFC (C. albicans; C. albicans 15): 0.008 % v/v
MIC (C. albicans; C. albicans 15): 0.004 % v/v

C=CCc1ccc(O)c(OC)c1 [Eugenol, eugenol]
Diameters of the inhibition rings (including 6.0 mm of the disk) (C. glabrata; C. glabrata 1): 35.0 mm
Diameters of the inhibition rings (including 6.0 mm of the disk) (C. glabrata; C. glabrata 2): 30.5 mm
MFC average (Candida spp.): 0.067 % v/v
MIC average (Candida spp.): 0.043 % v/v
MIC vs L. acidophilus relative to the average MIC vs Candida spp [1]: about 6 fold
MIC vs L. acidophilus [1]: 0.25 % v/v
MIC vs L. acidophilus relative to the observed maximum MIC vs Candida spp [1]: double
Diameters of the inhibition rings (including 6.0 mm of the disk) (C. lusitaniae): 43.0 mm
MFC (C. albicans; C. albicans 1): 0.032 % v/v
MIC (C. albicans; C. albicans 1): 0.032 % v/v
MFC (C. albicans; C. albicans 2): 0.032 % v/v
MIC (C. albicans; C. albicans 2): 0.032 % v/v
MFC (C. albicans; C. albicans 3): 0.032 % v/v
MIC (C. albicans; C. albicans 3): 0.016 % v/v
MFC (C. albicans; C. albicans 4): 0.064 % v/v
MIC (C. albicans; C. albicans 4): 0.064 % v/v
MFC (C. albicans; C. albicans 5): 0.032 % v/v
MIC (C. albicans; C. albicans 5): 0.008 % v/v
MFC (C. albicans; C. albicans 6): 0.032 % v/v
MIC (C. albicans; C. albicans 6): 0.032 % v/v
MFC (C. albicans; C. albicans 7): 0.064 % v/v
MIC (C. albicans; C. albicans 7): 0.032 % v/v
MFC (C. albicans; C. albicans 8): 0.032 % v/v
MIC (C. albicans; C. albicans 8): 0.032 % v/v
MFC (C. albicans; C. albicans 9): 0.125 % v/v
MIC (C. albicans; C. albicans 9): 0.125 % v/v
MFC (C. albicans; C. albicans 10): 0.016 % v/v
MIC (C. albicans; C. albicans 10): 0.016 % v/v
MFC (C. albicans; C. albicans 11): 0.125 % v/v
MIC (C. albicans; C. albicans 11): 0.064 % v/v
MFC (C. albicans; C. albicans 12): 0.064 % v/v
MIC (C. albicans; C. albicans 12): 0.016 % v/v
MFC (C. albicans; C. albicans 13): 0.125 % v/v
MIC (C. albicans; C. albicans 13): 0.064 % v/v
MFC (C. albicans; C. albicans 14): 0.125 % v/v
MIC (C. albicans; C. albicans 14): 0.032 % v/v
MFC (C. albicans; C. albicans 15): 0.064 % v/v
MIC (C. albicans; C. albicans 15): 0.032 % v/v
